{
  "source": "patent US7037936B2",
  "about": "“Compounds useful for the treatment of cancer, compositions thereof and methods therewith” (Signal Pharmaceuticals, LLC., priority 2002, dated 2006)",
  "type_in_all_cases": "cell-based",
  "key": {"[1]": {"system": "Hela (cervix adenocarcinoma)", "assay": "Induction of cell (programmed) death in Hela cells", "conditions": "Hela (cervix adenocarcinoma) cell line"}, "[2]": {"system": "MDA-MB-435 (breast cancer)", "assay": "Induction of cell (programmed) death in MDA-MB-435 cells", "conditions": "MDA-MB-435 (breast cancer) cell line"}, "[3]": {"system": "MDA-MB-231 (breast cancer)", "assay": "Induction of cell (programmed) death in MDA-MB-231 cells", "conditions": "MDA-MB-231 (breast cancer) cell line"}, "MCF-7 (breast cancer)": {"system": "MCF-7 (breast cancer)", "assay": "Induction of cell (programmed) death in MCF-7 cells", "conditions": "MCF-7 (breast cancer) cell line"}, "HL-60 (leukemia)": {"system": "HL-60 (leukemia)", "assay": "Induction of cell (programmed) death in HL-60 cells", "conditions": "HL-60 (leukemia) cell line"}, "A172 (malignant glioma)": {"system": "A172 (malignant glioma)", "assay": "Induction of cell (programmed) death in A172 cells", "conditions": "A172 (malignant glioma) cell line"}, "[4]": {"system": "NCIH1703 (non-small cell lung adenocarcinoma)", "assay": "Induction of cell (programmed) death in NCIH1703 cells", "conditions": "NCIH1703 (non-small cell lung adenocarcinoma) cell line"}, "A357 (lung cancer)": {"system": "A357 (lung cancer)", "assay": "Induction of cell (programmed) death in A357 cells", "conditions": "A357 (lung cancer) cell line"}, "DU145 (prostate cancer)": {"system": "DU145 (prostate cancer)", "assay": "Induction of cell (programmed) death in DU145 cells", "conditions": "DU145 (prostate cancer) cell line"}, "MM1s (multiple myeloma)": {"system": "MM1s (multiple myeloma)", "assay": "Induction of cell (programmed) death in MM1s cells", "conditions": "MM1s (multiple myeloma) cell line"}, "DF15 (multiple myeloma)": {"system": "DF15 (multiple myeloma)", "assay": "Induction of cell (programmed) death in DF15 cells", "conditions": "DF15 (multiple myeloma) cell line"}, "H929 (multiple myeloma)": {"system": "H929 (multiple myeloma)", "assay": "Induction of cell (programmed) death in H929 cells", "conditions": "H929 (multiple myeloma) cell line"}, "U266 (multiple myeloma)": {"system": "U266 (multiple myeloma)", "assay": "Induction of cell (programmed) death in U266 cells", "conditions": "U266 (multiple myeloma) cell line"}, "ANB6 (multiple myeloma)": {"system": "ANB6 (multiple myeloma)", "assay": "Induction of cell (programmed) death in ANB6 cells", "conditions": "ANB6 (multiple myeloma) cell line"}, "[5]": {"system": "MDA-435 human breast cancer cells", "assay": "In vitro cell cycle assay (G1 arrest), propidium iodide DNA content by flow cytometry", "conditions": "MDA-435 cells synchronized by serum deprivation for 24 hours, released with 10% serum; vehicle 28%", "description": "Tumor cells were synchronized by serum deprivation for 24 hours, then released by adding 10% serum to the cell culture with either the compound of EXAMPLE 1 ((4-{[3-(2,2-Dimethyl-tetrahydro-pyran-4-yl)-4-phenyl-butylamino]-methyl}-phenyl)-dimethyl-amine) (obtained from ChemBridge Corporation; single peak via HPLC: 20–100% gradient: acetonitrile/water/1% trifluoroacetic acid) or vehicle (dimethylsofloxide). Cells were harvested and stained in 0.04% digitonin working solution with […] propidium iodide. DNA content was analyzed by Flow Cytometry (Coulter). The population of cells in each phase was determined using Expo 32-ADC Software for Coulter EPICS® XL™ Cytometers, version 1.1 B (2001)."}, "[6]": {"system": "MDA-435 human breast cancer cells", "assay": "In vitro apoptosis assay, Annexin V-FITC and PI staining by flow cytometry", "conditions": "MDA-435 cells", "description": "MDA-435 human breast cancer cells were treated with either vehicle or varying doses of the compound of EXAMPLE 1. Cells were harvested and stained with Annexin V-FITC and PI by Flow Cytometry using ApoAlert Annexin V-FITC apoptosis kit (Clonetech, BD). The percentage of apoptotic cells were determined using EPICS® XL™ and XL-MCL, System II™ Software, version 1.0 (1996)."}},
  "note": "Counter-ions that a name gives are not always drawn.",
  "data": [
    {"smiles": "CN(C)c1ccc(CNCCC(Cc2ccccc2)C2CCOC(C)(C)C2)cc1", "note": "(centres unmarked) [EXAMPLE 1, (4-({[3-(2′,2′-dimethyltetrahydropyran-4′-yl)-4-phenylbutylamino]-methyl}-phenyl)-dimethylaminedihydrochloride]", "values": [
      {"measurement": "induction of cell (programmed) death", "setting": "[1]", "value": "induce cell (programmed) death"},
      {"measurement": "induction of cell (programmed) death", "setting": "[2]", "value": "induce cell (programmed) death"},
      {"measurement": "induction of cell (programmed) death", "setting": "[3]", "value": "induce cell (programmed) death"},
      {"measurement": "induction of cell (programmed) death", "setting": "MCF-7 (breast cancer)", "value": "induce cell (programmed) death"},
      {"measurement": "induction of cell (programmed) death", "setting": "HL-60 (leukemia)", "value": "induce cell (programmed) death"},
      {"measurement": "induction of cell (programmed) death", "setting": "A172 (malignant glioma)", "value": "induce cell (programmed) death"},
      {"measurement": "induction of cell (programmed) death", "setting": "[4]", "value": "induce cell (programmed) death"},
      {"measurement": "induction of cell (programmed) death", "setting": "A357 (lung cancer)", "value": "induce cell (programmed) death"},
      {"measurement": "induction of cell (programmed) death", "setting": "DU145 (prostate cancer)", "value": "induce cell (programmed) death"},
      {"measurement": "induction of cell (programmed) death", "setting": "MM1s (multiple myeloma)", "value": "induce cell (programmed) death"},
      {"measurement": "induction of cell (programmed) death", "setting": "DF15 (multiple myeloma)", "value": "induce cell (programmed) death"},
      {"measurement": "induction of cell (programmed) death", "setting": "H929 (multiple myeloma)", "value": "induce cell (programmed) death"},
      {"measurement": "induction of cell (programmed) death", "setting": "U266 (multiple myeloma)", "value": "induce cell (programmed) death"},
      {"measurement": "induction of cell (programmed) death", "setting": "ANB6 (multiple myeloma)", "value": "induce cell (programmed) death"},
      {"measurement": "G0/G1 to S phase transition blockage", "setting": "[5]", "value": 38, "unit": "%"},
      {"measurement": "cell population with increased intensity of Annexin V-FITC staining", "setting": "[6]; varying doses, dose-dependent increase", "value": "up to 30%"},
      {"measurement": "PI staining of treated cells", "setting": "[6]; PI stains cells in a late stage of apoptosis", "value": "increase in PI staining"}
    ]}
  ]
}
